Assay results reported in patent US20190345138A1, “HETEROCYCLIC AMIDES AS KINASE INHIBITORS” (GlaxoSmithKline Intellectual Property Development Limited, priority 2016, published 2019).
Several values for one entry are separate records, joined by “and”; a condition that tells them apart may be missing. Identical values can stand only once. Like-named read-outs stand apart in the source and are kept apart here.

Experiments:
[1] = test system: mouse L929 fibrosarcoma cells; assay: necroptosis assay in L929 cells; assay type: cell-based; conditions: viability by cellular ATP (Cell Titer-Glo), read-out: pIC50, inhibited necrosis in L929 cells (converted)
Protocol: The efficacy of RIP1 inhibitors can be tested […] in vitro using a human monocytic leukemia U937 or mouse L929 fibrosarcoma cells in a necroptosis assay. As determined using the method described in S. He et al., Cell, 137(6):1100-1111 (2009) and International Patent Appln. No. PCT/IB2014/059004, now, International Patent Appln. Pub.
Viability was measured by quantitating cellular levels of ATP using the Cell Titer-Glo kit. All data are means±standard deviation of the mean.

[2] = test system: human monocytic leukemia U937 cells; assay: necroptosis assay in U937 cells; assay type: cell-based; conditions: viability by cellular ATP (Cell Titer-Glo); for IC50: Homo sapiens, U-937, U937 cells, read-out: pIC50, inhibited necrosis in U937 cells (converted)
Outline: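 Necroptosis was induced in human U937 or mouse L929 cells, and viability was quantified as cellular ATP with Cell Titer-Glo. Data are means±standard deviation.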

RIP1 kinase = molecular target: T1, RIP1 kinase (Homo sapiens, UniProt Q13546); assay: fluorescent polarization based binding assay; conditions: mean of a minimum of 2 experiments
T1 sequence (Q13546 1-375 limits assumed): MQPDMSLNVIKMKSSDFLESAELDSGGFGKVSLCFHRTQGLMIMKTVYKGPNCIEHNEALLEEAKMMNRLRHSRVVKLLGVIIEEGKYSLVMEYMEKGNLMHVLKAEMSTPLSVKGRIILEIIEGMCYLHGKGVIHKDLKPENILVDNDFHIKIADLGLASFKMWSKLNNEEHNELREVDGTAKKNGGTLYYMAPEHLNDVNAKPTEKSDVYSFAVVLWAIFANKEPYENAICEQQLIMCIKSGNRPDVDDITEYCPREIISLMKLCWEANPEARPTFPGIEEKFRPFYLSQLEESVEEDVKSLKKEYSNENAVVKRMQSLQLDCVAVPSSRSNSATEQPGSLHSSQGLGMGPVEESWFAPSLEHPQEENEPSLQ
Description: A fluorescent polarization based binding assay was used to assess the activity of the compounds of this invention, the details of which are disclosed in International Patent Appln. No. PCT/IB2014/059004, now, International Patent Appln. Pub.

| IC50 (RIP1 kinase) | Compound | IC50 ([1]; L929 cells) | IC50 [2] | IC50 ([1]; L929, L929 cells) | pIC50, inhibited necrosis in U937 cells ([2]; U937 cells) |
| --- | --- | --- | --- | --- | --- |
|  | O=C(C1CCN(c2ncc3cn[nH]c3n2)CC1)N1N=CC[C@H]1c1cc(F)cc(F)c1 [Example 86, (S)-(1-(1H-pyrazolo[3,4-d]pyrimidin-6-yl)piperidin-4-yl)(5-(3,5-difluorophenyl)-4,5-dihydro-1H-pyrazol-1-yl)methanone] | 0.001 to 0.1 µM | 0.001 to 0.1 µM |  |  |
| 0.001 to 0.0316 µM and 0.001 to 0.01 µM | NC(=O)c1ccnc(N2CCC(C(=O)N3N=CC[C@H]3c3ccccc3)CC2)n1 [Example 28, (S)-2-(4-(5-phenyl-4,5-dihydro-1H-pyrazole-1-carbonyl)piperidin-1-yl)pyrimidine-4-carboxamide] | 0.001 to 0.1 µM | 0.001 to 0.1 µM |  |  |
| 0.001 to 0.0316 µM and 0.001 to 0.01 µM | O=C(C1CCN(c2ncc3cn[nH]c3n2)CC1)N1N=CC[C@H]1c1ccccc1 [Example 52, (S)-(1-(1H-pyrazolo[3,4-d]pyrimidin-6-yl)piperidin-4-yl)(5-phenyl-4,5-dihydro-1H-pyrazol-1-yl)methanone] | 0.001 to 0.1 µM | 0.001 to 0.1 µM |  |  |
| 0.001 to 0.0316 µM and 0.001 to 0.01 µM | Nc1nc(N2CCC(C(=O)N3N=CC[C@H]3c3cc(F)cc(F)c3)CC2)ncc1F [Example 81, (S)-(1-(4-amino-5-fluoropyrimidin-2-yl)piperidin-4-yl)(5-(3,5-difluorophenyl)-4,5-dihydro-1H-pyrazol-1-yl)methanone] | 0.001 to 0.1 µM | 0.001 to 0.1 µM |  |  |
| 0.001 to 0.0316 µM and 0.001 to 0.01 µM | NC(=O)c1nc(N2CCC(C(=O)N3N=CC[C@H]3c3ccccc3)CC2)ncc1F [Example 162, (S)-5-fluoro-2-(4-(5-phenyl-4,5-dihydro-1H-pyrazole-1-carbonyl)piperidin-1-yl)pyrimidine-4-carboxamide] | 0.001 to 0.1 µM | 0.001 to 0.1 µM |  |  |
| 0.001 to 0.0316 µM and 0.001 to 0.01 µM | NC(=O)c1ccnc(N2CCC(C(=O)N3N=CC[C@H]3c3cc(F)cc(F)c3)CC2)n1 [Example 83, (S)-2-(4-(5-(3,5-difluorophenyl)-4,5-dihydro-1H-pyrazole-1-carbonyl)piperidin-1-yl)pyrimidine-4-carboxamide] | 0.001 to 0.1 µM | 0.001 to 0.1 µM |  |  |
| 0.001 to 0.0316 µM and 0.001 to 0.01 µM | N#Cc1cc(N2CCC(C(=O)N3N=CC[C@H]3c3ccccc3)CC2)ncn1 [Example 14, (S)-6-(4-(5-phenyl-4,5-dihydro-1H-pyrazole-1-carbonyl)piperidin-1-yl)pyrimidine-4-carbonitrile] | 0.001 to 0.1 µM | 0.001 to 0.1 µM |  |  |
| 0.001 to 0.0316 µM and 0.001 to 0.01 µM | NC(=O)c1ccnc(N2CCC(C(=O)N3N=CC[C@H]3c3cc(F)ccc3F)CC2)n1 [Example 102, (S)-2-(4-(5-(2,5-difluorophenyl)-4,5-dihydro-1H-pyrazole-1-carbonyl)piperidin-1-yl)pyrimidine-4-carboxamide] | 0.001 to 0.1 µM | 0.001 to 0.1 µM |  |  |
|  | N#Cc1nccc(N2CCC(C(=O)N3N=CC[C@H]3c3cc(F)cc(F)c3)CC2)n1 [Example 89, (S)-4-(4-(5-(3,5-difluorophenyl)-4,5-dihydro-1H-pyrazole-1-carbonyl)piperidin-1-yl)pyrimidine-2-carbonitrile] |  | 0.001 to 0.1 µM | 0.001 to 0.1 µM |  |
| 0.001 to 0.0316 µM and 0.001 to 0.01 µM | C#Cc1cc(N2CCC(C(=O)N3N=CC[C@H]3c3ccccc3)CC2)ncn1 [Example 156, (S)-(1-(6-ethynylpyrimidin-4-yl)piperidin-4-yl)(5-phenyl-4,5-dihydro-1H-pyrazol-1-yl)methanone] | 0.001 to 0.1 µM | 0.001 to 0.1 µM |  |  |
|  | Cc1nnc(N2CCC(C(=O)N3N=CC[C@H]3c3cc(F)cc(F)c3)CC2)o1 [Example 77, (S)-(5-(3,5-difluorophenyl)-4,5-dihydro-1H-pyrazol-1-yl)(1-(5-methyl-1,3,4-oxadiazol-2-yl)piperidin-4-yl)methanone] |  |  | ~3.16 µM | ~7.2 |
| ~0.0501 µM | O=C(O)c1ncnc(N2CCC(C(=O)N3N=CC[C@H]3c3ccccc3)CC2)c1F [Example 159, (S)-5-fluoro-6-(4-(5-phenyl-4,5-dihydro-1H-pyrazole-1-carbonyl)piperidin-1-yl)pyrimidine-4-carboxylic acid] | ~0.251 µM |  |  |  |
|  | O=C(C1CCN(c2nccc(SCc3ccccc3)n2)CC1)N1N=CC[C@H]1c1ccccc1 [Example 1, (S)-(1-(4-(benzylthio)pyrimidin-2-yl)piperidin-4-yl)(5-phenyl-4,5-dihydro-1H-pyrazol-1-yl)methanone] | 0.001 to 0.1 µM | 0.001 to 0.1 µM |  |  |
| 0.001 to 0.0316 µM and 0.001 to 0.01 µM | CC(=O)Nc1ccnc(N2CCC(C(=O)N3N=CC[C@H]3c3ccccc3)CC2)n1 [Example 36, (S)-N-(2-(4-(5-phenyl-4,5-dihydro-1H-pyrazole-1-carbonyl)piperidin-1-yl)pyrimidin-4-yl)acetamide] | 0.001 to 0.1 µM | 0.001 to 0.1 µM |  |  |
| 0.001 to 0.0316 µM and 0.001 to 0.01 µM | N#Cc1cc(N2CCC(C(=O)N3N=CC[C@H]3c3cc(F)ccc3F)CC2)ncn1 [Example 104, (S)-6-(4-(5-(2,5-difluorophenyl)-4,5-dihydro-1H-pyrazole-1-carbonyl)piperidin-1-yl)pyrimidine-4-carbonitrile] | 0.001 to 0.1 µM | 0.001 to 0.1 µM |  |  |
| 0.001 to 0.0316 µM and 0.001 to 0.01 µM | Nc1nc(N2CCC(C(=O)N3N=CC[C@H]3c3ccccc3)CC2)ncc1F [Example 27, (S)-(1-(4-amino-5-fluoropyrimidin-2-yl)piperidin-4-yl)(5-phenyl-4,5-dihydro-1H-pyrazol-1-yl)methanone] | 0.001 to 0.1 µM | 0.001 to 0.1 µM |  |  |
| 0.001 to 0.0316 µM | CC(=O)Nc1ccnc(N2CCC(C(=O)N3N=CC[C@H]3c3cc(F)ccc3F)CC2)n1 [Example 118, (S)—N-(2-(4-(5-(2,5-difluorophenyl)-4,5-dihydro-1H-pyrazole-1-carbonyl)piperidin-1-yl)pyrimidin-4-yl)acetamide] | 0.001 to 0.1 µM | 0.001 to 0.1 µM |  |  |
| 0.001 to 0.0316 µM | O=C(C1CCN(c2ccc3nccn3n2)CC1)N1N=CC[C@H]1c1cncc(F)c1 [Example 117, (S)-(5-(5-fluoropyridin-3-yl)-4,5-dihydro-1H-pyrazol-1-yl)(1-(imidazo[1,2-b]pyridazin-6-yl)piperidin-4-yl)methanone] |  | 0.001 to 0.1 µM |  |  |
| 0.001 to 0.0316 µM | N#Cc1cnc(N2CCC(C(=O)N3N=CCC3c3ccccc3)CC2)nc1 (racemic) [Example 2, 2-(4-(5-phenyl-4,5-dihydro-1H-pyrazole-1-carbonyl)piperidin-1-yl)pyrimidine-5-carbonitrile] |  | 0.001 to 0.1 µM |  |  |
| 0.001 to 0.0316 µM | O=C(C1CCN(c2nccc(=O)[nH]2)CC1)N1N=CC[C@H]1c1ccccc1 [Example 19, (S)-2-(4-(5-phenyl-4,5-dihydro-1H-pyrazole-1-carbonyl)piperidin-1-yl)pyrimidin-4(3H)-one] |  | 0.001 to 0.1 µM |  |  |
| 0.001 to 0.0316 µM and 0.001 to 0.01 µM | N#Cc1cncnc1N1CCC(C(=O)N2N=CC[C@H]2c2ccccc2)CC1 [Example 50, (S)-4-(4-(5-phenyl-4,5-dihydro-1H-pyrazole-1-carbonyl)piperidin-1-yl)pyrimidine-5-carbonitrile] |  | 0.001 to 0.1 µM |  |  |
| 0.001 to 0.0316 µM | O=C(C1CCN(c2cncc(-c3ccccc3)n2)CC1)N1N=CC[C@H]1c1ccccc1 [Example 38, (S)-(5-phenyl-4,5-dihydro-1H-pyrazol-1-yl)(1-(6-phenylpyrazin-2-yl)piperidin-4-yl)methanone] |  | 0.001 to 0.1 µM |  |  |
| 0.001 to 0.0316 µM | COc1ccnc(N2CCC(C(=O)N3N=CCC3c3ccccc3)CC2)n1 (racemic) [Example 3, (1-(4-methoxypyrimidin-2-yl)piperidin-4-yl)(5-phenyl-4,5-dihydro-1H-pyrazol-1-yl)methanone] |  | 0.001 to 0.1 µM |  |  |
| 0.001 to 0.0316 µM | Nc1ccnc(N2CCC(C(=O)N3N=CC[C@H]3c3cc(F)cc(F)c3)CC2)n1 [Example 93, (S)-(1-(4-aminopyrimidin-2-yl)piperidin-4-yl)(5-(3,5-difluorophenyl)-4,5-dihydro-1H-pyrazol-1-yl)methanone] |  | 0.001 to 0.1 µM |  |  |
